In patent US12129237B2, “Substituted diaminocarboxamide and diaminocarbonitrile pyrimidines, compositions thereof, and methods of treatment therewith” (SIGNAL PHARMACEUTICALS, LLC, priority 2011, dated 2024):

The compounds below were run against T1, JNK1 (Homo sapiens, UniProt P45983) (assay: JNK1 biochemical assays (one or more of: time resolved fluorescence, Z'-LYTE Cascade, radioactive)). Conditions: Table 2; JNK1 IC50 activity level; read-out: Act. Level.
T1 construct: purchased Carna Biosciences
T1 sequence (P45983 whole entry): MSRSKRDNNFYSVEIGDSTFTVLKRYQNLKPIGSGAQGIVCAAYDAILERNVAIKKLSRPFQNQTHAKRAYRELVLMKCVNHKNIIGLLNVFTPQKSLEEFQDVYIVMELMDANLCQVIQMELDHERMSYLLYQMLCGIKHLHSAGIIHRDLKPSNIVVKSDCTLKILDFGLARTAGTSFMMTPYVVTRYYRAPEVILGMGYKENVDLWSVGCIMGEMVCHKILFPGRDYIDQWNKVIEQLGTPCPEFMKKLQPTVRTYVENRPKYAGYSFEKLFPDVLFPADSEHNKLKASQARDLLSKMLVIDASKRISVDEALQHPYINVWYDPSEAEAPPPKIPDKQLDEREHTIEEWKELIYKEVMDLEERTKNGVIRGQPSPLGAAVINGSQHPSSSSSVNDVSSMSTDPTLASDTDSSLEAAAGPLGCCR

Row | IC50 | SMILES
1 | 200 to 800 nM | NC(=O)c1cnc(NCc2cccnc2)nc1Nc1ccccc1 [Example B-51, 4-(phenylamino)-2-(pyridin-3-ylmethylamino)pyrimidine-5-carboxamide]
2 | < 200 nM | COc1ccc(Nc2ncc(C(N)=O)c(Nc3ccccc3)n2)c(OC)c1 [Example B-20, 2-(2,4-dimethoxyphenylamino)-4-(phenylamino)pyrimidine-5-carboxamide]
3 | < 200 nM | COc1cccc(Nc2ncc(C(N)=O)c(Nc3ccccc3)n2)c1 [Example B-25, 2-(3-methoxyphenylamino)-4-(phenylamino)pyrimidine-5-carboxamide]
4 | < 200 nM | C[C@]1(O)CCC[C@@H](Nc2nc(N[C@@H]3CCc4ncccc4C3)ncc2C(N)=O)C1 [Example B-101, 4-((1R,3S)-3-hydroxy-3-methylcyclohexylamino)-2-((R)-5,6,7,8-tetrahydroquinolin-6-ylamino)pyrimidine-5-carboxamide]
5 | 1000 to 10000 nM | CC(=O)NCCNc1ncc(C(N)=O)c(Nc2ccccc2)n1 [Example B-41, 2-(2-acetamidoethylamino)-4-(phenylamino)pyrimidine-5-carboxamide]
6 | 200 to 800 nM | CC(CNc1ncc(C(N)=O)c(Nc2ccccc2)n1)c1ccccc1 (stereo not drawn) [Example B-72, 4-(phenylamino)-2-(2-phenylpropylamino)pyrimidine-5-carboxamide]
7 | < 200 nM | NC(=O)c1cnc(N[C@H]2CCc3ncccc3C2)nc1N[C@@H]1CCCC[C@H](O)C1 [Example B-97, 4-((1R,3S)-3-hydroxycycloheptylamino)-2-((S)-5,6,7,8-tetrahydroquinolin-6-ylamino)pyrimidine-5-carboxamide]
8 | 200 to 800 nM | CC1(C)OCC(CNc2ncc(C(N)=O)c(Nc3ccccc3)n2)O1 (stereo not drawn) [Example B-58, 2-((2,2-dimethyl-1,3-dioxolan-4-yl)methylamino)-4-(phenylamino)pyrimidine-5-carboxamide]
9 | 800 to 1000 nM | NC(=O)c1cnc(N[C@H]2CCOc3ccccc32)nc1N[C@@H]1CCC[C@H](O)C1 [Example B-78, 2-((S)-chroman-4-ylamino)-4-((1R,3S)-3-hydroxycyclohexylamino)pyrimidine-5-carboxamide]

Same assay, conditions: Table 3; JNK1 IC50 activity level; read-out: Act. Level

Row | IC50 | SMILES
10 | 200 to 800 nM | CC(C)(C)Nc1ncc(C#N)c(N[C@@H]2CCC[C@](C)(O)C2)n1 [Example C-59, 2-(tert-butylamino)-4-((1R,3S)-3-hydroxy-3-methylcyclohexylamino) pyrimidine-5-carbonitrile]

Same assay, conditions: one or more of the JNK1 biochemical assays; read-out: Act. Level (JNK1 IC50 activity level)

Row | IC50 | SMILES
11 | < 200 nM | CC[C@H](C)Nc1ncc(C(N)=O)c(N[C@@H]2CCC[C@H](O)C2)n1 [Example 496, 2-(sec-butylamino)-4-((1R,3S)-3-hydroxycyclohexylamino)pyrimidine-5-carboxamide]
12 | < 200 nM | C[C@H](Nc1ncc(C(N)=O)c(N[C@@H]2CC[C@@H](C)[C@H](O)C2)n1)C1CC1 [Example 395, 2-((S)-1-cyclopropylethylamino)-4-((1R,3R,4R)-3-hydroxy-4-methylcyclohexylamino)pyrimidine-5-carboxamide]
13 | < 200 nM | CC1CCC1Nc1nc(N[C@H]2CC[C@H](OCC(F)(F)F)CC2)ncc1C(N)=O (stereo partly drawn) [Example 257, 4-(2-methylcyclobutylamino)-2-((1r,4r)-4-(2,2,2-trifluoroethoxy)cyclohexylamino)pyrimidine-5-carboxamide]
14 | 200 to 800 nM | CC1(C)CCC(Nc2nc(NC(C)(C)C)ncc2C(N)=O)C(O)C1 (stereo not drawn) [Example 342, 2-(tert-butylamino)-4-(2-hydroxy-4,4-dimethylcyclohexylamino)pyrimidine-5-carboxamide]
15 | < 200 nM | NC(=O)c1cnc(NC2CCCC(O)CC2)nc1NC1CCC1 (stereo not drawn) [Example 249, 4-(cyclobutylamino)-2-(4-hydroxycycloheptylamino)pyrimidine-5-carboxamide]
16 | < 200 nM | CC1(C)CCC(Nc2nc(NC(C)(C)C)ncc2C(N)=O)C(O)C1 (stereo not drawn) [Example 343, 2-(tert-butylamino)-4-(2-hydroxy-4,4-dimethylcyclohexylamino)pyrimidine-5-carboxamide]
17 | < 200 nM | C[C@@H](Nc1nc(N[C@H]2CC[C@H](O)CC2)ncc1C(N)=O)C1CC1 [Example 261, 4-((R)-1-cyclopropylethylamino)-2-((1r,4R)-4-hydroxycyclohexylamino)pyrimidine-5-carboxamide]
18 | < 200 nM | C[C@@H]1CC[C@@H](Nc2nc(NCC3CC3)ncc2C(N)=O)C[C@H]1O [Example 472, 2-(cyclopropylmethylamino)-4-((1R,3R,4R)-3-hydroxy-4-methylcyclohexylamino)pyrimidine-5-carboxamide]
19 | < 200 nM | CC(C)(Nc1nc(N[C@H]2CC[C@H](O)CC2)ncc1C(N)=O)C1CC1 [Example 316, 4-(2-cyclopropylpropan-2-ylamino)-2-((1r,4r)-4-hydroxycyclohexylamino)pyrimidine-5-carboxamide]
20 | < 200 nM | CO[C@H]1CC[C@H](Nc2ncc(C(N)=O)c(N[C@@H](C)C(C)C)n2)CC1 [Example 283, 2-((1r,4S)-4-methoxycyclohexylamino)-4-((S)-3-methylbutan-2-ylamino)pyrimidine-5-carboxamide]
21 | < 200 nM | CCO[C@H]1CC[C@H](Nc2ncc(C(N)=O)c(N[C@H]3C[C@H](C)C3)n2)CC1 [Example 313, 2-((1r,4r)-4-ethoxycyclohexylamino)-4-((1r,3r)-3-methylcyclobutylamino)pyrimidine-5-carboxamide]
22 | < 200 nM | CCO[C@H]1CC[C@H](Nc2ncc(C(N)=O)c(NC(C)(C)C3CC3)n2)CC1 [Example 314, 4-(2-cyclopropylpropan-2-ylamino)-2-((1r,4r)-4-ethoxycyclohexylamino)pyrimidine-5-carboxamide]
23 | < 200 nM | CC(C)(C)Nc1nc(N[C@@H]2CCCOC2)ncc1C(N)=O [Example 301, (R)-4-(tert-butylamino)-2-(tetrahydro-2H-pyran-3-ylamino)pyrimidine-5-carboxamide]
24 | < 200 nM | CCO[C@H]1CC[C@H](Nc2ncc(C(N)=O)c(N[C@@H](C)C(C)C)n2)CC1 [Example 282, 2-((1r,4S)-4-ethoxycyclohexylamino)-4-((S)-3-methylbutan-2-ylamino)pyrimidine-5-carboxamide]
25 | < 200 nM | CC(C)[C@H](C)Nc1nc(N[C@H]2CC[C@H](O)CC2)ncc1C(N)=O [Example 284, 2-((1r,4S)-4-hydroxycyclohexylamino)-4-((S)-3-methylbutan-2-ylamino)pyrimidine-5-carboxamide]
26 | < 200 nM | C[C@]1(O)CCCC(Nc2nc(NC34CCC(F)(CC3)CC4)ncc2C(N)=O)C1 (stereo partly drawn) [Example 321, 2-(4-fluorobicyclo[2.2.2]octan-1-ylamino)-4-((3S)-3-hydroxy-3-methylcyclohexylamino)pyrimidine-5-carboxamide]
27 | < 200 nM | CC(C)(C)Nc1nc(N[C@H]2CCC[C@@H](O)C2)ncc1C(N)=O [Example 306, 4-(tert-butylamino)-2-((1S,3R)-3-hydroxycyclohexylamino)pyrimidine-5-carboxamide]
28 | < 200 nM | CC1CCC1Nc1nc(N[C@H]2CC[C@H](O)CC2)ncc1C(N)=O (stereo partly drawn) [Example 247, 2-((1r,4r)-4-hydroxycyclohexylamino)-4-(2-methylcyclobutylamino)pyrimidine-5-carboxamide]
29 | < 200 nM | CCC1(Nc2nc(N[C@H]3CC[C@H](O)CC3)ncc2C(N)=O)CC1 [Example 356, 4-(1-ethylcyclopropylamino)-2-((1r,4r)-4-hydroxycyclohexylamino)pyrimidine-5-carboxamide]

Same assay, conditions: tested in one or more of the JNK1 biochemical assays; read-out: Act. Level (JNK1 biochemical assay IC50 activity level)

Row | IC50 | SMILES
30 | < 200 nM | CC(=O)N1CCC(Nc2nc(N[C@@H](C)C3CCCCC3)ncc2C(N)=O)CC1 [Example A-127, (S)-4-(1-acetylpiperidin-4-ylamino)-2-(1-cyclohexylethylamino)pyrimidine-5-carboxamide]
31 | < 200 nM | CCO[C@H]1CC[C@H](Nc2ncc(C(N)=O)c(NC3CCC[C@H](O)C3)n2)CC1 (stereo partly drawn) [Example A-58, 2-((1r,4R)-4-ethoxycyclohexylamino)-4-((1R,3S)-3-hydroxycyclohexylamino)pyrimidine-5-carboxamide]
32 | < 200 nM | NC(=O)c1cnc(N[C@H]2CC[C@H](O)CC2)nc1NC1CCCCC1 [Example A-144, 4-(cyclohexylamino)-2-((1r,4r)-4-hydroxycyclohexylamino)pyrimidine-5-carboxamide]
33 | 1000 to 10000 nM | NC(=O)c1cnc(NC2CCC2)nc1N[C@H]1CC[C@@H](C(=O)NC2CC2)CC1 [Example A-132, 2-(cyclobutylamino)-4-((1s,4s)-4-(cyclopropylcarbamoyl)cyclohexylamino)pyrimidine-5-carboxamide]
34 | 200 to 800 nM | CCO[C@H]1CC[C@@H](Nc2nc(NC(C)(C)CO)ncc2C(N)=O)CC1 [Example A-106, 4-((1s,4s)-4-ethoxycyclohexylamino)-2-(1-hydroxy-2-methylpropan-2-ylamino)pyrimidine-5-carboxamide]
35 | < 200 nM | CC(C)Nc1nc(N[C@H]2CC[C@H](OCC(F)(F)F)CC2)ncc1C(N)=O [Example A-1, 4-(isopropylamino)-2-((1r,4r)-4-(2,2,2-trifluoroethoxy)cyclohexylamino)pyrimidine-5-carboxamide]
36 | < 200 nM | C[C@H](Nc1ncc(C(N)=O)c(N[C@H]2CC[C@@H](O)CC2)n1)C1CCCCC1 [Example A-125, 2-((S)-1-cyclohexylethylamino)-4-((1s,4R)-4-hydroxycyclohexylamino)pyrimidine-5-carboxamide]
37 | 200 to 800 nM | CN(C)C(=O)[C@H]1CC[C@@H](Nc2nc(NC3CCOCC3)ncc2C(N)=O)CC1 [Example A-116, 4-((1s,4s)-4-(dimethylcarbamoyl)cyclohexylamino)-2-(tetrahydro-2H-pyran-4-ylamino)pyrimidine-5-carboxamide]
38 | < 200 nM | COC(=O)N1CCC(Nc2ncc(C(N)=O)c(NC3CCCCC3)n2)CC1 [Example A-123, methyl 4-(5-carbamoyl-4-(cyclohexylamino)pyrimidin-2-ylamino)piperidine-1-carboxylate]
39 | < 200 nM | COC[C@H]1CC[C@@H](Nc2nc(N[C@H]3CCC(O)C3)ncc2C(N)=O)CC1 (stereo partly drawn) [Example A-99, 2-((1S,3S)-3-hydroxycyclopentylamino)-4-((1s,4R)-4-(methoxymethyl)cyclohexylamino)pyrimidine-5-carboxamide]
